In general, pEC50 refers to −log10 of the EC50, conventionally taken in molar units. The EC50 is the midpoint of the concentration-response curve.

We go through 28 compounds from patent publication US9056876B2, “Substituted 1H-pyrazolo[3′,4′,4,5]thieno[2,3-b]pyridin-3-amine analogs as positive allosteric modulators of the muscarinic acetylcholine receptor M4” (VANDERBILT UNIVERSITY, priority 2011, dated 2015).

This experiment addresses T1, mAChR M4 (UniProt P08173).
T1 construct: hM1 and hM4 cDNAs were purchased from Missouri S&T cDNA Resource
T1 sequence (P08173 1-479): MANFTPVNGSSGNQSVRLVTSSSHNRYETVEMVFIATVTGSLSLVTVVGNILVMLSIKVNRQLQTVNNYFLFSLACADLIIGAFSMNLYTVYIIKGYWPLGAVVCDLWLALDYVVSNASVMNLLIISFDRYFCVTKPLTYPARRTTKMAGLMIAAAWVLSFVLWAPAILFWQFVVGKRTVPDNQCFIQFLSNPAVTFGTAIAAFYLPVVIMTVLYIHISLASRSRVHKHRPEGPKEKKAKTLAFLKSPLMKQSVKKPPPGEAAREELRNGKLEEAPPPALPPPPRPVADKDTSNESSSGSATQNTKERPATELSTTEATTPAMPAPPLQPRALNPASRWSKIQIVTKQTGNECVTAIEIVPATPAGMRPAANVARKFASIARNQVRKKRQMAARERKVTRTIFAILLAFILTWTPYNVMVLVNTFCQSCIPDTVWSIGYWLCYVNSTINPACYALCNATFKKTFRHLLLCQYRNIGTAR
Nature of the experiment: mAChR M4 cell-based functional assay (calcium mobilization, Fluo-4, FDSS). Conditions: for pEC50: positive allosteric modulator activity, EC20 acetylcholine response; for pEC50 / EC50: CHO-K1 cells; for EC50: positive allosteric modulator activity: concentration-dependent increase in the EC20 acetylcholine response, >10 μM estimated for low potency (no plateau); for Emax (%)*: % ACh maximum at 30 μM. The method in brief: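 Compound responses (11-point, 1:3 series) were followed as calcium fluorescence ratio on FDSS in Gqi5-coupled M4 CHO-K1 cells (human or rat) loaded with Fluo-4. Acetylcholine followed at EC20 (144 s) then EC80 (230 s). EC50/Emax from four-parameter logistic fits of direct, EC20-potentiating or EC80-inhibiting effects.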

Regarding `Cc1cc(C)c2c(n1)sc1c(NC3CCCCCC3)n[nH]c12` [Compound 133, N-cycloheptyl-6,8-dimethyl-1H-pyrazolo[3′,4′:4,5]thieno[2,3-b]pyridin-3-amine], the pEC50 is reported as under 5.00 and the EC50 is over 10000 nM.
In the same order, the values of `Cc1cc(C)c2c(n1)sc1c(NC(=O)C3CCCCC3)nn(C)c12` [Compound 153, N-(1,6,8-trimethyl-1H-pyrazolo[3′,4′:4,5]thieno[2,3-b]pyridin-3-yl)cyclohexanecarboxamide] are under 5.00 and over 10000 nM.
As for `Cc1cc(C)cc(CNc2n[nH]c3c2sc2nc(C)c(Cl)c(C)c23)c1` [Compound 144, 7-chloro-N-(3,5-dimethylbenzyl)-6,8-dimethyl-1H-pyrazolo[3′,4′:4,5]thieno[2,3-b]pyridin-3-amine], the pEC50 is given as under 5.00 and the half-maximal effective concentration (EC50) was over 10000 nM.
In the case of `Cc1csc(CNc2nn(C)c3c2sc2nc(C)cc(C)c23)n1` [Compound 98, 1,6,8-trimethyl-N-((4-methylthiazol-2-yl)methyl)-1H-pyrazolo[3′,4′:4,5]thieno[2,3-b]pyridin-3-amine], the “Emax (%)*” value was 53%, the pEC50 was determined as 6.28 and the EC50 was 520 nM.
Turning to `Cc1ccc2c(n1)sc1c(NCc3ccco3)nn(C)c12` [Compound 52, N-(furan-2-ylmethyl)-1,6-dimethyl-1H-pyrazolo[3′,4′:4,5]thieno[2,3-b]pyridin-3-amine], the “Emax (%)*” value came out at 64%, the pEC50 is given as 5.82 and the EC50 was 1500 nM.
Take `Cc1cc(C)c2c(n1)sc1c(NC(=O)C3CC3)n[nH]c12` [Compound 2, N-(6,8-dimethyl-1H-pyrazolo[3′,4′:4,5]thieno[2,3-b]pyridin-3-yl)cyclopropanecarboxamide]: the “Emax (%)*” value is listed as 36%, the negative logarithm of the EC50 (pEC50) amounted to 5.42 and the EC50 is 3840 nM.
Turning to `Cc1cc(C)c2c(n1)sc1c(NC3CCCSC3)nn(CCO)c12` (stereo not drawn) [Compound 113, 2-(6,8-dimethyl-3-((tetrahydro-2H-thiopyran-3-yl)amino)-1H-pyrazolo[3′,4′:4,5]thieno[2,3-b]pyridin-1-yl)ethanol], the “Emax (%)*” value amounted to 62%, the pEC50 is 6.37 and the EC50 is 430 nM.
On the same counts, the results for `CC(=O)N1CCC(CNc2nn(C)c3c2sc2nc(C)cc(C)c23)CC1` [Compound 121, 1-(4-(((1,6,8-trimethyl-1H-pyrazolo[3′,4′:4,5]thieno[2,3-b]pyridin-3-yl)amino)methyl)piperidin-1-yl)ethanone] are 41%, 6.00 and 990 nM.
For the compound `Cc1ccc2c(n1)sc1c(NC(C)C)nn(C)c12` [Compound 70, N-isopropyl-1,6-dimethyl-1H-pyrazolo[3′,4′:4,5]thieno[2,3-b]pyridin-3-amine], the “Emax (%)*” value stood at 62%, the pEC50 is under 5.00 and the concentration for a half-maximal effect (EC50) is over 10000 nM.
Take `COc1ccc(CNc2n[nH]c3c2sc2nc(C)c(Cl)c(C)c23)cc1` [Compound 143, 7-chloro-N-(4-methoxybenzyl)-6,8-dimethyl-1H-pyrazolo[3′,4′:4,5]thieno[2,3-b]pyridin-3-amine]: the negative logarithm of the EC50 (pEC50) is under 5.00 and the concentration for a half-maximal effect (EC50) is over 10000 nM.
`Cc1nc2sc3c(NCCC(C)C)nn(C)c3c2c(C)c1Cl` [Compound 24, 7-chloro-N-isopentyl-1,6,8-trimethyl-1H-pyrazolo[3′,4′:4,5]thieno[2,3-b]pyridin-3-amine]: the “Emax (%)*” value is recorded as 61%, the pEC50 was under 5.00 and the EC50 is over 10000 nM.
As to `Cc1cc(C)c2c(n1)sc1c(NCc3scnc3C)nn(CCO)c12` [Compound 110, 2-(6,8-dimethyl-3-(((4-methylthiazol-5-yl)methyl)amino)-1H-pyrazolo[3′,4′:4,5]thieno[2,3-b]pyridin-1-yl)ethanol], the “Emax (%)*” value came out at 72%, the pEC50 is reported as 7.08 and the EC50 was 84 nM.
Turning to `Cc1cc(C)c2c(n1)sc1c(NCc3ccc(S(C)(=O)=O)cc3)nn(C)c12` [Compound 75, 1,6,8-trimethyl-N-(4-(methylsulfonyl)benzyl)-1H-pyrazolo[3′,4′:4,5]thieno[2,3-b]pyridin-3-amine], the “Emax (%)*” value is listed as 73%, the negative-log EC50 (pEC50) is 6.60 and the EC50 is 250 nM.
In the same order, the values of `Cc1cc(C)c2c(n1)sc1c(NCC3CC3)n[nH]c12` [Compound 7, N-(cyclopropylmethyl)-6,8-dimethyl-1H-pyrazolo[3′,4′:4,5]thieno[2,3-b]pyridin-3-amine] are 68%, 5.90 and 1260 nM.
For the compound `COc1ccc(Cn2nc(N(C)C)c3sc4nc(C)cc(C)c4c32)cc1` [Compound 155, 1-(4-methoxybenzyl)-N,N,6,8-tetramethyl-1H-pyrazolo[3′,4′:4,5]thieno[2,3-b]pyridin-3-amine], the negative-log EC50 (pEC50) is reported as under 5.00 and the EC50 is over 10000 nM.
For `Cc1cc(C)c2c(n1)sc1c(NCc3cccs3)nn(C)c12` [Compound 34, 1,6,8-trimethyl-N-(thiophen-2-ylmethyl)-1H-pyrazolo[3′,4′:4,5]thieno[2,3-b]pyridin-3-amine], the “Emax (%)*” value amounted to 81%, the pEC50 worked out at 7.07 and the EC50 was 86 nM.
In the same order, the values of `COc1ccc(CNc2nn(C)c3c2sc2nc(C)cc(C)c23)cc1` [Compound 38, N-(4-methoxybenzyl)-1,6,8-trimethyl-1H-pyrazolo[3′,4′:4,5]thieno[2,3-b]pyridin-3-amine] are 72%, 6.66 and 220 nM.
As for `Cc1cc(C)c2c(n1)sc1c(NC(=O)c3ccccc3)nn(C)c12` [Compound 152, N-(1,6,8-trimethyl-1H-pyrazolo[3′,4′:4,5]thieno[2,3-b]pyridin-3-yl)benzamide], the pEC50 is given as under 5.00 and the EC50 is over 10000 nM.
Regarding `Cc1ccc2c(n1)sc1c(NC(=O)c3ccccc3)nn(C)c12` [Compound 157, N-(1,6-dimethyl-1H-pyrazolo[3′,4′:4,5]thieno[2,3-b]pyridin-3-yl)benzamide], the negative logarithm of the EC50 (pEC50) is under 5.00 and the EC50 was over 10000 nM.
As to `Cc1cc(C)c2c(n1)sc1c(NC3CCOCC3)nn(CCO)c12` [Compound 115, 2-(6,8-dimethyl-3-((tetrahydro-2H-pyran-4-yl)amino)-1H-pyrazolo[3′,4′:4,5]thieno[2,3-b]pyridin-1-yl)ethanol], the “Emax (%)*” value was 69%, the pEC50 turned out to be 5.72 and the EC50 is 1900 nM.
Regarding `Cc1cc(C)c2c(n1)sc1c(NCc3ccc4[nH]ccc4c3)nn(C)c12` [Compound 88, N-((1H-indo1-5-yl)methyl)-1,6,8-trimethyl-1H-pyrazolo[3′,4′:4,5]thieno[2,3-b]pyridin-3-amine], the “Emax (%)*” value came to 67%, the negative logarithm of the EC50 (pEC50) was determined as 5.89 and the EC50 is 1300 nM.
On the same counts, the results for `Cc1cc(C)c2c(n1)sc1c(NCC(C)C)n[nH]c12` [Compound 37, N-isobutyl-6,8-dimethyl-1H-pyrazolo[3′,4′:4,5]thieno[2,3-b]pyridin-3-amine] are 53%, 5.43 and 3700 nM.
As for `Cc1ccc2c(n1)sc1c(NCc3ccncc3)nn(C)c12` [Compound 67, 1,6-dimethyl-N-(pyridin-4-ylmethyl)-1H-pyrazolo[3′,4′:4,5]thieno[2,3-b]pyridin-3-amine], the “Emax (%)*” value amounted to 80%, the negative-log EC50 (pEC50) is 5.96 and the EC50 was 1100 nM.
On to `Cc1ccc2c(n1)sc1c(N)n[nH]c12` [Compound 149, 6-methyl-1H-pyrazolo[3′,4′:4,5]thieno[2,3-b]pyridin-3-amine], for which the pEC50 was under 5.00 and the EC50 was over 10000 nM.
Consider `Cc1nc2sc3c(NCc4ccccc4)n[nH]c3c2c(C)c1Cl` [Compound 16, N-benzyl-7-chloro-6,8-dimethyl-1H-pyrazolo[3′,4′:4,5]thieno[2,3-b]pyridin-3-amine], for which the “Emax (%)*” value is 32%, the negative logarithm of the EC50 (pEC50) was under 5.00 and the EC50 was over 10000 nM.
As to `Cc1cc(C)c2c(n1)sc1c(NCC3CC3)nn(C)c12` [Compound 30, N-(cyclopropylmethyl)-1,6,8-trimethyl-1H-pyrazolo[3′,4′:4,5]thieno[2,3-b]pyridin-3-amine], the “Emax (%)*” value is reported as 73%, the pEC50 is reported as 6.80 and the EC50 was 160 nM.
As for `Cc1nc2sc3c(N)n[nH]c3c2c(C)c1Cl` [Compound 141, 7-chloro-6,8-dimethyl-1H-pyrazolo[3′,4′:4,5]thieno[2,3-b]pyridin-3-amine], the pEC50 is reported as under 5.00 and the EC50 was over 10000 nM.
On to `Cc1cc(C)c2c(n1)sc1c(NCc3scnc3C)nn(C)c12` [Compound 93, 1,6,8-trimethyl-N-((4-methylthiazol-5-yl)methyl)-1H-pyrazolo[3′,4′:4,5]thieno[2,3-b]pyridin-3-amine], for which the “Emax (%)*” value was 53%, the pEC50 is recorded as 7.42 and the EC50 is 38 nM.
